Laboratory results published in patent publication US11332440B2, “4-oxo-alkylated tetramic acid compound, and preparation method thereof” (priority 2017, dated 2022).
Entries after “also recorded” stand apart in the source; their conditions may differ. Read-outs that look alike come from different tables or passages of the source.

Legend:
[1] = test system: Salmonella typhimurium TA100; experiment: Mini Ames experiment, strain TA100; format: cell-based; settings: TA100, regardless of the presence or absence of S9
Experimental: Histidine auxotrophic strains of Salmonella typhimurium were cultured in a special medium with quite a low content of histidine. The strains were difficult to divide due to lack of nutrition. If a test compound has mutagenicity, a large number of cells will undergo reverse mutation, synthesizing histidine by themselves and developing into colonies visible to the naked eye. In view of the close relationship between mutagenicity and carcinogenesis of chemicals, this method has been widely used in screening carcinogens. Some chemicals need metabolic activation to induce mutagenicity. Mammalian microsomal enzyme S9 can be added into the test system to eliminate the influence of metabolic activation on generation of mutagenicity.
[…] Mini Ames test with compound 50561

[2] = MTD experiment, dose gradient by gavage; format: in vivo; settings: both sexes, mouse, in vivo, po, CR mice, by gavage, read-out: maximum tolerance (MTD)
Experimental: (§1) Mice are commonly used rodents to evaluate the toxicity of a test sample and are also an important part of early preclinical safety evaluation. In this experiment, the toxicity of compound 50561 was tested by administering a dose gradient thereof to the mice by gavage and observing its toxicity.
(§2) This experiment was designed such that for each dose centration, 10 mice were tested, including half males and half females. The males each weighed about 18-23 grams, and the females each weighed about 17-21 grams. They were randomly grouped by a simple randomization procedure. All the animals used in the experiment weighed between ±20% of the average body weight of their respective genders. If there are not enough animals in the study to meet the weight range required thereby, notify the responsible person of the project to take reasonable measures. Animals must be adapted to the laboratory for at least three days. During this period, daily cage observation was conducted once a day, and a detailed clinical observation was necessary before the experiment. Any animal with symptoms or physical abnormalities would be reported to the attending veterinarian and responsible person of the project, and excluded whenever possible. Animals suitable for experimentation will be assigned to respective experimental groups according to the random grouping method described above.
(§3) During the experiment, after administration, all animals were observed continuously for 4 hours; from the end of administration till 3 days thereafter, observations were carried out twice each day, one in the morning and the other in the afternoon; and then observation was carried out once a day. Observations included but were not limited to: skin, hair, eyes, ears, nose, mouth, chest, abdomen, external genitals, limbs, and feet. The respiratory and circulatory systems, autonomic effects (such as salivation), and nervous system (such as tremors, convulsions, stress responses, and abnormal behaviors) should be focused on. Complete anatomical examinations would be performed on all animals that had died, were dying, or planned to be euthanized. Animals found dead outside of fixed working hours could be placed in the refrigerator overnight and dissected immediately on the next working day. At the end of the experiment (14th day after administration), all animals requiring autopsy would be euthanized and autopsied.
(§4) External abnormalities in animals, such as palpable masses, should be examined in detail. The skin would be cut along the midline of the abdomen, and any subcutaneous mass would be confirmed in conjunction with the findings in the observations of animal symptoms. […] Diseased organs were removed, weighed, recoded, and kept in a fixative fluid.

CR mice = experiment: MTD experiment, dose gradient by gavage; format: in vivo
Experimental: as §1, §2, §3, §4

O=C1C=C(OCc2ccc(F)cc2)[C@H](Cc2ccccc2)N1 [Compound 50561]
change in the number of colonies / mutagenicity [1]: did not cause more than twice of a change in the number of colonies; also recorded: no obvious mutagenicity
MTD at 14 days ([2]; CR): < 500 mg/kg
MTD at 14 days [2]: ≥ 250 mg/kg
Body weight decreased (CR mice; 250 mg/kg by gavage): Body weight decreased by about 2 g, which
Remarks (CR mice; 250 mg/kg by gavage): in good condition.
Body weight decreased (CR mice; 500 mg/kg by gavage): Body weight decreased by about 2 g;
Remarks (CR mice; 500 mg/kg by gavage): individual activity decreased; and the body
Remarks (CR mice; 750 mg/kg by gavage): No abnormality of organs in dead individuals.
Remarks (CR mice; 1000 mg/kg by gavage): No abnormality of organs in dead individuals.
